In ChEMBL document CHEMBL3621085, “Tetrazole regioisomers in the development of nitro group-containing antitubercular agents” (Medchemcomm, 2015):
Values after ≈ are worked out from the molar mass of the structure shown.

Columns and labels:
Mycobacterium kansasii [1] = assay: Antimycobacterial activity against Mycobacterium kansasii My 235/80 after 21 days by micromethod; assay type: functional; details: My 235/80, 504 h
Mycobacterium kansasii [2] = assay: Antimycobacterial activity against Mycobacterium kansasii 6509/96 after 14 days by micromethod; assay type: functional; details: 6509/96, 336 h
Mycobacterium kansasii [3] = assay: Antimycobacterial activity against Mycobacterium kansasii 6509/96 after 21 days by micromethod; assay type: functional; details: 6509/96, 504 h
Mycobacterium kansasii [4] = assay: Antimycobacterial activity against Mycobacterium kansasii 6509/96 after 7 days by micromethod; assay type: functional; details: 6509/96, 168 h
[5] = tested on: Mycobacterium tuberculosis; assay: Antimycobacterial activity against Mycobacterium tuberculosis My 331/88 after 21 days by micromethod; assay type: functional; details: My 331/88, 504 h
[6] = tested on: Mycobacterium tuberculosis; assay: Antimycobacterial activity against Mycobacterium tuberculosis My 331/88 after 14 days by micromethod; assay type: functional; details: My 331/88, 336 h
Mycobacterium avium [7] = assay: Antimycobacterial activity against Mycobacterium avium My 330/88 after 21 days by micromethod; assay type: functional; details: My 330/88, 504 h
Mycobacterium kansasii [8] = assay: Antimycobacterial activity against Mycobacterium kansasii My 235/80 after 7 days by micromethod; assay type: functional; details: My 235/80, 168 h
Mycobacterium avium [9] = assay: Antimycobacterial activity against Mycobacterium avium My 330/88 after 14 days by micromethod; assay type: functional; details: My 330/88, 336 h
Mycobacterium kansasii [10] = assay: Antimycobacterial activity against Mycobacterium kansasii My 235/80 after 14 days by micromethod; assay type: functional; details: My 235/80, 336 h
[11] = Cytotoxicity against CHOK1 cells assessed as viability after 24 hrs by MTT assay; assay type: cell-based; details: Cricetulus griseus, CHO-K1, 24 h

| SMILES | MIC (Mycobacterium kansasii [1]) | MIC (Mycobacterium kansasii [2]) | MIC (Mycobacterium kansasii [3]) | MIC (Mycobacterium kansasii [4]) | MIC [5] | MIC [6] | MIC (Mycobacterium avium [7]) | MIC (Mycobacterium kansasii [8]) | MIC (Mycobacterium avium [9]) | MIC (Mycobacterium kansasii [10]) | IC50 [11] |
| --- | --- | --- | --- | --- | --- | --- | --- | --- | --- | --- | --- |
| NNC(=O)c1ccncc1 [ISONIAZID] | 250 µM (≈ 34.3 µg/mL) | 4 µM (≈ 0.549 µg/mL) | 4 µM (≈ 0.549 µg/mL) | 4 µM (≈ 0.549 µg/mL) | 1 µM (≈ 0.137 µg/mL) | 0.5 µM (≈ 0.0686 µg/mL) | 250 µM (≈ 34.3 µg/mL) | 250 µM (≈ 34.3 µg/mL) | 250 µM (≈ 34.3 µg/mL) | 250 µM (≈ 34.3 µg/mL) |  |
| O=[N+]([O-])c1ccc(CSc2nnnn2Cc2ccc([N+](=O)[O-])cc2)cc1 | 250 µM (≈ 93.1 µg/mL) | 250 µM (≈ 93.1 µg/mL) | 250 µM (≈ 93.1 µg/mL) | 250 µM (≈ 93.1 µg/mL) | 500 µM (≈ 186 µg/mL) | 500 µM (≈ 186 µg/mL) | 250 µM (≈ 93.1 µg/mL) | 250 µM (≈ 93.1 µg/mL) | 250 µM (≈ 93.1 µg/mL) | 250 µM (≈ 93.1 µg/mL) |  |
| O=[N+]([O-])c1ccc(CSc2nnnn2Cc2ccccc2)c([N+](=O)[O-])c1 | 62 µM (≈ 23.1 µg/mL) | 32 µM (≈ 11.9 µg/mL) | 62 µM (≈ 23.1 µg/mL) | 16 µM (≈ 5.96 µg/mL) | 8 µM (≈ 2.98 µg/mL) | 8 µM (≈ 2.98 µg/mL) | 250 µM (≈ 93.1 µg/mL) | 8 µM (≈ 2.98 µg/mL) | 250 µM (≈ 93.1 µg/mL) | 32 µM (≈ 11.9 µg/mL) |  |
| O=[N+]([O-])c1cc(CSc2nnnn2Cc2ccc(Cl)c(Cl)c2)cc([N+](=O)[O-])c1 | 4 µM (≈ 1.77 µg/mL) | 4 µM (≈ 1.77 µg/mL) | 8 µM (≈ 3.53 µg/mL) | 2 µM (≈ 0.883 µg/mL) | 2 µM (≈ 0.883 µg/mL) | 2 µM (≈ 0.883 µg/mL) | 125 µM (≈ 55.2 µg/mL) | 2 µM (≈ 0.883 µg/mL) | 125 µM (≈ 55.2 µg/mL) | 4 µM (≈ 1.77 µg/mL) | 140 µM |
| O=[N+]([O-])c1ccc(Cn2nnc([Se]Cc3ccccc3)n2)c([N+](=O)[O-])c1 | 16 µM (≈ 6.71 µg/mL) | 16 µM (≈ 6.71 µg/mL) | 32 µM (≈ 13.4 µg/mL) | 8 µM (≈ 3.35 µg/mL) | 1 µM (≈ 0.419 µg/mL) | 1 µM (≈ 0.419 µg/mL) | 8 µM (≈ 3.35 µg/mL) | 8 µM (≈ 3.35 µg/mL) | 4 µM (≈ 1.68 µg/mL) | 16 µM (≈ 6.71 µg/mL) |  |
| O=[N+]([O-])c1cc(Cn2nnnc2[Se]Cc2ccccc2)cc([N+](=O)[O-])c1 | 32 µM (≈ 13.4 µg/mL) | 32 µM (≈ 13.4 µg/mL) | 32 µM (≈ 13.4 µg/mL) | 16 µM (≈ 6.71 µg/mL) | 8 µM (≈ 3.35 µg/mL) | 8 µM (≈ 3.35 µg/mL) | 32 µM (≈ 13.4 µg/mL) | 8 µM (≈ 3.35 µg/mL) | 32 µM (≈ 13.4 µg/mL) | 16 µM (≈ 6.71 µg/mL) | 85 µM |
| Cn1nnc(SCc2ccc([N+](=O)[O-])cc2[N+](=O)[O-])n1 | 125 µM (≈ 37 µg/mL) | 125 µM (≈ 37 µg/mL) | 125 µM (≈ 37 µg/mL) | 32 µM (≈ 9.48 µg/mL) | 8 µM (≈ 2.37 µg/mL) | 4 µM (≈ 1.19 µg/mL) | 125 µM (≈ 37 µg/mL) | 32 µM (≈ 9.48 µg/mL) | 125 µM (≈ 37 µg/mL) | 125 µM (≈ 37 µg/mL) |  |
| O=[N+]([O-])c1cc(Cn2nnc(SCc3ccccc3)n2)cc([N+](=O)[O-])c1 | 32 µM (≈ 11.9 µg/mL) | 32 µM (≈ 11.9 µg/mL) | 32 µM (≈ 11.9 µg/mL) | 16 µM (≈ 5.96 µg/mL) | 16 µM (≈ 5.96 µg/mL) | 16 µM (≈ 5.96 µg/mL) | 125 µM (≈ 46.5 µg/mL) | 16 µM (≈ 5.96 µg/mL) | 125 µM (≈ 46.5 µg/mL) | 32 µM (≈ 11.9 µg/mL) | 148 µM |
| COc1ccc(C[Se]c2nnn(Cc3cc([N+](=O)[O-])cc([N+](=O)[O-])c3)n2)cc1 | 16 µM (≈ 7.19 µg/mL) | 32 µM (≈ 14.4 µg/mL) | 32 µM (≈ 14.4 µg/mL) | 16 µM (≈ 7.19 µg/mL) | 8 µM (≈ 3.59 µg/mL) | 4 µM (≈ 1.8 µg/mL) | 32 µM (≈ 14.4 µg/mL) | 8 µM (≈ 3.59 µg/mL) | 16 µM (≈ 7.19 µg/mL) | 16 µM (≈ 7.19 µg/mL) |  |
| Cn1nnnc1SCc1ccc([N+](=O)[O-])cc1[N+](=O)[O-] | 500 µM (≈ 148 µg/mL) | 500 µM (≈ 148 µg/mL) | 500 µM (≈ 148 µg/mL) | 125 µM (≈ 37 µg/mL) | 16 µM (≈ 4.74 µg/mL) | 16 µM (≈ 4.74 µg/mL) | 500 µM (≈ 148 µg/mL) | 125 µM (≈ 37 µg/mL) | 125 µM (≈ 37 µg/mL) | 500 µM (≈ 148 µg/mL) |  |
| Cn1nnnc1[Se]Cc1ccc([N+](=O)[O-])cc1[N+](=O)[O-] | 125 µM (≈ 42.9 µg/mL) | 125 µM (≈ 42.9 µg/mL) | 250 µM (≈ 85.8 µg/mL) | 62 µM (≈ 21.3 µg/mL) | 32 µM (≈ 11 µg/mL) | 32 µM (≈ 11 µg/mL) | 250 µM (≈ 85.8 µg/mL) | 62 µM (≈ 21.3 µg/mL) | 250 µM (≈ 85.8 µg/mL) | 125 µM (≈ 42.9 µg/mL) |  |
| Cn1nnc([Se]Cc2ccc([N+](=O)[O-])cc2[N+](=O)[O-])n1 | 125 µM (≈ 42.9 µg/mL) | 62 µM (≈ 21.3 µg/mL) | 125 µM (≈ 42.9 µg/mL) | 16 µM (≈ 5.49 µg/mL) | 16 µM (≈ 5.49 µg/mL) | 16 µM (≈ 5.49 µg/mL) | 62 µM (≈ 21.3 µg/mL) | 32 µM (≈ 11 µg/mL) | 62 µM (≈ 21.3 µg/mL) | 125 µM (≈ 42.9 µg/mL) |  |
| O=[N+]([O-])c1cc(Cn2nnnc2SCc2ccccc2)cc([N+](=O)[O-])c1 | 62 µM (≈ 23.1 µg/mL) | 32 µM (≈ 11.9 µg/mL) | 32 µM (≈ 11.9 µg/mL) | 16 µM (≈ 5.96 µg/mL) | 8 µM (≈ 2.98 µg/mL) | 8 µM (≈ 2.98 µg/mL) | 125 µM (≈ 46.5 µg/mL) | 32 µM (≈ 11.9 µg/mL) | 125 µM (≈ 46.5 µg/mL) | 62 µM (≈ 23.1 µg/mL) | 115 µM |
| Cn1nnc(SCc2cc([N+](=O)[O-])cc([N+](=O)[O-])c2)n1 | 8 µM (≈ 2.37 µg/mL) | 16 µM (≈ 4.74 µg/mL) | 16 µM (≈ 4.74 µg/mL) | 8 µM (≈ 2.37 µg/mL) | 4 µM (≈ 1.19 µg/mL) | 2 µM (≈ 0.593 µg/mL) | 250 µM (≈ 74.1 µg/mL) | 4 µM (≈ 1.19 µg/mL) | 125 µM (≈ 37 µg/mL) | 8 µM (≈ 2.37 µg/mL) |  |
